Data reported in patent publication US20220079935A1, “COMPOUNDS AND TREATMENTS THAT ENHANCE ENTERIC NERVOUS SYSTEM FUNCTION” (The Johns Hopkins University, priority 2019, published 2022).
“Also recorded” adds a separate entry of the source. Blank lines part the entries; values can stand above or below the molecule they belong to.

Assays:
[1] = system: intestine of wild type mice; experiment: BDNF release in the intestine after oral administration; format: in vivo; conditions: oral administration 20 mg/kg, wild type mice (FIG. 6C)
NEC in mice = experiment: Experimental NEC model in mice; format: in vivo
Protocol: In the inventors' NEC model, 7d old mice are gavaged with a combination of Similac Advance infant formula (Abbott Nutrition):Esbilac canine milk replacer (PetAb) in a 2:1 ratio at 50 μl/g every 3 hours, and subjected to 10 minutes of hypoxia (5% O2 95% N2 in a Billups-Rothenberg chamber) twice daily for four days, and then orally gavaged dysbiotic bacteria (1×10^5 cfu/ml) obtained from the stool of a patient with severe NEC (see our recent JCI paper for more model details^7). This protocol induces patchy intestinal necrosis and mucosal disruption which mimics human NEC in wild-type mice, but not in either TLR4^ΔIEC or TLR4^−/− littermates.

[2] = system: premature human intestine obtained after surgery for NEC; experiment: Human NEC intestine treated ex vivo with LPS; format: cell-based
Protocol: (§1) FIGS. 5A-5K. BDNF restrains TLR4 signaling in the intestinal epithelium. 5A) enterocytes. 5B) In wild-type mice, BDNF (1 μg/kg) LPS (5 mg/kg) injection for 6 hrs. 5C) qRT-PCR of human ileum freshly harvested from patient with NEC treated with LPS (25 μg/kg) for 6 hr. 5D-H) H&E images. 5I) BDNF ELISA. 5J-K) TNFα and NEC severity. *p<0.05 by ANOVA; 5-10 mice per experiment.
(§2) Fifth, wild-type mice with NEC show reduced levels of BDNF in the intestinal mucosa (FIG. 5H-I), consistent with the reduction in glia.
(§3) The inventors next embarked on a strategy to identify novel therapeutic agents for NEC based upon their ability to enhance glial function and thus reduce TLR4 signaling and NEC. To do so, several libraries of FDA approved compounds were screened against the rat enteric glia cell line EGC/PK060399 (ATCC® CRL-2690™) for their ability to induce BDNF release, then the hits were validated by their ability to reduce NEC in mice. The lead hit, shown in FIG. 6A, is a C13H11NO5 compound with MW 261.23Da, herein named “J11”.

[3] = system: enteric glial cells (EGC/PK060399egfr, ATCC CRL-2690); experiment: BDNF mRNA expression by enteric glial cells (qPCR); format: cell-based, rat; conditions: 10 μM and 20 μM J11
Protocol: FIG. 17 depicts a time response curve showing the BDNF mRNA expression by enteric glial cells stimulated with 10 μM and 20 μM J11. The enteric glial cells (EGC/PK060399egfr, ATCC® CRL-2690™) were treated with 10 μM and 20 μM J11, and the enteric glial cells were harvested at 2, 6, 24 and 48 hours after treatment.
The enteric glial cells (EGC/PK060399egfr, ATCC® CRL-2690™) were treated with 10 μM and 20 μM J11, and the enteric glial cells were harvested at 2, 6, 24 and 48 hours after treatment. Total RNA was isolated using the RNeasy mini kit following the manufacturer's protocol. Complementary DNA was synthesized from 0.5 μg RNA using M-MLV reverse transcriptase. The qPCR analysis was performed with the Bio-Rad CFX96 Real-Time System (Biorad, Hercules, Calif.). The relative BDNF mRNA expression was normalized against the expression of housekeeping gene RPLO.

[4] = system: rat enteric glia cell line EGC/PK060399 (ATCC CRL-2690); experiment: BDNF release from cultured enteric glia cell line (BDNF ELISA); format: cell-based
Protocol: FIG. 16 is a time response curve showing the BDNF secretion by enteric glial cells stimulated with 10 μM J11. The enteric glial cells (EGC/PK060399egfr, ATCC® CRL-2690™) were treated with 10 μM J11, and the conditional medium were harvested at 2, 6, 24 and 48 hours after treatment. The BDNF secretion was quantified using BDNF ELISA kit following the manufacturer's protocol.
as §3
A dose-response curve was established for oxolinic acid (J11) in inducing BDNF release in the enteric glia cell line EGC/PK060399, and will be used evaluate a safety profile based upon its mean effective dose in mice. […] The BDNF secretion was quantified using BDNF ELISA kit following the manufacturer's protocol. The amount of BDNF was time dependent with the greatest secretion after 48 hours of exposure.

TLR4 signaling [5] = experiment: LPS-mediated TLR4 signaling in the intestine of mice; format: in vivo
Protocol: as §1, §2, §3
(§4) The inventors sought to determine how BDNF inhibits TLR4 and thus attenuates NEC. BDNF is known to signal principally via its receptor, namely tropomyosin-related kinase B (TrkB), which the inventors now show to be present in the intestinal epithelium (FIG. 7). The inventors have now knocked down TrkB in IEC-6 enterocytes (FIG. 7A) using lentiviral delivery of TrkB shRNA.

TrkB = biological target: T1, TrkB (Mus musculus, UniProt P15209, F616A); experiment: TrkB inhibition in NTrk2 tmlDdg/J mutant mice; format: in vivo; conditions: 1NMPP1 25 μM injected in NTrk2 tmlDdg/J mutant mice; preliminary
T1 construct: from tissue; host or cells: NTrk2 tm1Ddg/J knock-in mutant mice (in vivo; intestine)

TLR4 signaling [6] = experiment: LPS-induced cytokine expression in cultured enterocytes or enteroids; format: cell-based, mice; conditions: BDNF 1 μg/ml
From the text: as §2, §4

T1 sequence (P15209 32-821 F616A): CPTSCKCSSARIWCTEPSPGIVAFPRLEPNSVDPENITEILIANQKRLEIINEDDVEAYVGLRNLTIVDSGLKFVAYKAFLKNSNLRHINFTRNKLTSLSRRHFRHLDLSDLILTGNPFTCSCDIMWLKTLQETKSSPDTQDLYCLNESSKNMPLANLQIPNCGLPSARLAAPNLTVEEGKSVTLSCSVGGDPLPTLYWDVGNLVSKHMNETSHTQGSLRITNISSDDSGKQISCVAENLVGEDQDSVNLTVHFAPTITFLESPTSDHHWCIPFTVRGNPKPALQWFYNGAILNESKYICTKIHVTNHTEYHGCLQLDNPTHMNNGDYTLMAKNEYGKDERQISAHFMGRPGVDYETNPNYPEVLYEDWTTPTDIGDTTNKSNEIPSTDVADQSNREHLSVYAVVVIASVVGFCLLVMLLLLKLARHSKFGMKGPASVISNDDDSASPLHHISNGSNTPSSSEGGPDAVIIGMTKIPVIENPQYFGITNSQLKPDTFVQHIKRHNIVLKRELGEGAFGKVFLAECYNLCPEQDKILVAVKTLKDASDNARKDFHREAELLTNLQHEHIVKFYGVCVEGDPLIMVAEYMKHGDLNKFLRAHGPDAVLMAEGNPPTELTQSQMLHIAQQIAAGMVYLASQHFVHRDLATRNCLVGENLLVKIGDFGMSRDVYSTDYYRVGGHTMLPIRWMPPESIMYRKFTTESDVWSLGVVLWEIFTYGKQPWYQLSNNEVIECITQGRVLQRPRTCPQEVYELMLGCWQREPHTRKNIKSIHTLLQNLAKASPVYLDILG

Molecule: CCn1cc(C(=O)O)c(=O)c2cc3c(cc21)OCO3 [J11, oxolinic acid]
BDNF release in the intestine [1]: induced BDNF release | NEC severity (NEC in mice; administered orally 20 mg/kg/day to 7d old mice, 20 mg/kg/day): significantly reduced NEC severity; also recorded: prevents NEC in mice | TLR4 signaling / inflammation in human NEC intestine ([2]; J11 10 μM, LPS 25 μg/ml, ex vivo): reduced TLR4 signaling; also recorded: reduces TLR4 signaling in human tissue; also recorded: reduces inflammation in human NEC tissue ex vivo | BDNF release in human NEC intestine ([2]; J11 10 μM, ex vivo): significantly induced BDNF release | time of maximal BDNF mRNA expression ([3]; harvested at 2, 6, 24 and 48 hours): 24 h | BDNF mRNA expression ([3]; normalized to RPLO (FIG. 17)): stimulated | time of greatest BDNF secretion ([4]; 10 μM J11, conditional medium harvested at 2, 6, 24 and 48 hours, BDNF ELISA (FIG. 16)): 48 h | BDNF release from enteric glia ([4]; cultured enteric glia (FIG. 6B)): induced BDNF release | LPS-mediated TLR4 signaling in the intestine (TLR4 signaling [5]; LPS 5 mg/kg, wild type mice (FIG. 6D)): inhibited LPS (5 mg/kg)-mediated TLR4 signaling

TrkB inhibition (TrkB): preliminarily achieved TrkB inhibition
Molecule: CC(C)(C)n1nc(Cc2cccc3ccccc23)c2c(N)ncnc21 [1NMPP1]

B1: BDNF: brain derived neurotrophic factor, enteric glia-derived peptide signalling through TrkB (protein, UniProt P23560 19-247, looked up)
Neurotrophic factor BDNF …: APMKEANIRGQGGLAYPGVRTHGTLESVNGPKAGSRGLTSLADTFEHVIEELLDEDQKVRPNEENNKDADLYTSRVMLSSQVPLEPPLLFLLEEYKNYLDAANMSMRVRRHSDPARRGELSVCDSISEWVTAADKKTAVDMSGGTVTVLEKVPVSKGQLKQYFYETKCNPMGYTKEGCRGIDKRHWNSQCRTTQSYVRALTMDSKKRIGWRFIRIDTSCVCTLTIKRGR
NEC in mice lacking TrkB in the intestinal epithelium (NEC in mice; TrkB-lacking intestinal epithelium, BDNF administration): not protected by BDNF administration | NEC severity in the glial-KO mouse model (NEC in mice; glial-KO mice, BDNF 1 μg/kg (FIGS. 5H-K)): significantly reversed the severe NEC; also recorded: reversed by the administration of BDNF | NEC development (NEC in mice; oral BDNF 1 μg/kg on each day of the model, histology and inflammatory cytokines): significantly protected against NEC development | protection from LPS in ileum from NEC patients ([2]; ileum from NEC patients treated with BDNF (FIG. 5C)): protection was seen | TLR4-induced cytokine expression (TLR4 signaling [6]; LPS 50 μg/ml, cultured enterocytes or enteroids from wild-type mice (FIG. 5A)): reduced TLR4 signaling | LPS induced IL-6 expression after TrkB knockdown (TLR4 signaling [6]; IEC-6 cells with TrkB shRNA, LPS 50 μg/ml (FIG. 7A)): knockdown of TrkB prevented BDNF (1 μg/ml)-mediated protection; also recorded: prevents BDNF protection of LPS TLR4-induced cytokine expression | TLR4-mediated expression of pro-inflammatory cytokines in the intestinal mucosa (TLR4 signaling [5]; BDNF 1 μg/kg injection, wild type mice, 6h after LPS injection (FIG. 5B)): significantly reduced TLR4-mediated expression of the pro-inflammatory cytokines | LPS-mediated TNF induction in mice deficient in TrkB (TLR4 signaling [5]; newborn mice, TrkB shRNA by oral gavage, BDNF 1 μg/kg (FIG. 7B)): no protection of LPS-mediated TNF induction by BDNF | intestinal TNFα in glia KO mouse (TLR4 signaling [5]; qRT-PCR, glia KO mouse (FIG. 3B)): reversed by BDNF
